Experimental data reported in patent US20050089524A1, “Compositions and compounds for use as molecular adjuvant for a nicotine vaccine” (priority 2002, published 2005).
Blank lines part the entries; values can stand above or below the molecule they belong to. Square brackets hold non-standard residues; d marks the D form. Peptide text beside a SMILES is read from it.

What was measured:
MUC1 epitope peptide = assay: Serum antibody response to MUC1 epitope in immunized mice (RIA); assay type: in vivo; conditions: C57Bl6 and Balb/c mice, 100 μg i.p. with RIBI adjuvant, three immunizations, sera at 6 weeks
Text: iii. Animal Models. The strains of mice used for this example were inbred females 6 to 12 week old C57Bl6(H-2^b) and Balb/c (H-2^d), which were obtained from Jackson labs (Bar Harbor, Me.). […] The MUC1 peptide selected for these studies contained a motif that may bind to the H-2K^b molecule of the C57Bl6 mice; therefore, a strain of mouse that lacked this class I molecule binding motif (Balb/c) was also studied to determine the relative contribution of the class I binding motif to the antigen presentation properties of these peptides.
iv. Immunization protocol. Preimmune sera were obtained from mice, which were subsequently immunized intraperitoneally with 100 μg of the indicated peptide with RIBI adjuvant (MPL+TDM+CWS) (Sigma Immunochemicals). Animals were boosted twice at two week intervals using the same injection procedure. Sera were obtained following three immunizations (at 6 weeks).
v. Analysis of serum antibody responses. For radioimmunoassay (RIA), anti-peptide antibodies were determined, before and at different time points after immunization, in 96-well microtiter plates (Dynatech Laboratories, Inc.). Plates were coated with 50 μl of a 100 μg/ml appropriate peptide in phosphate-buffered saline (PBS) pH 7.4 solution overnight at 4° C. The wells were blocked by incubation with 5% dry milk in PBS pH 7.4 for at least two hours. Anti-peptide antibody titers were determined using serial dilutions of sera. The sera were diluted with PBS containing 0.05% Tween-20, pH 7.4 (washing buffer) and 50 μl of each dilution was incubated at 37° C. for 1 hour. The wells were then drained, washed 4 times with PBS-Tween and 50 μl of ^125I-goat anti-mouse Ab (1-2×10^4 cpm/well) was added and incubated for 1 hr at 25° C. After washing, specific radioactivity was recorded in a gamma counter (1272 CliniGamma, LKB).
vi. Experimental groups. […]

MUC1 peptide = assay: MUC1-specific antibody isotype titers in immunized mice (ELISA); assay type: in vivo
[1] = target: C5a receptor (C5aR) expressed on the surface of human PMNs (human) (UniProt P21730); assay: competition with 125I-C5a on intact human PMNs
[2] = target: C5a receptor (C5aR) expressed on the surface of human PMNs (human) (UniProt P21730); assay: cell-based or functional assay
[3] = target: C5a receptor (C5aR) expressed on the surface of human PMNs (human) (UniProt P21730); assay: competition with 125I-C5a on intact human PMNs; concentration giving 50% inhibition of 125I-C5a binding
[4] = Anti-nicotine antibodies in immune serum of rats (ELISA); assay type: in vivo, Wistar rats
Method: ii. Animal Models. Five groups of male Wistar rats (ca 275 g) were immunized every other week with: 1) PBS 2) Nic-[…]aR (Nic-SEQ ID NO:1), 3) Nic-[…]aR (Nic-SEQ ID NO:1) in Freund's adjuvant, 4) Nic-[…]aR (Nic-SEQ ID NO:2), and 5) Nic-[…]aR (Nic-SEQ ID NO:2) in Freund's adjuvant. Primary immunizations were accomplished by subcutaneous (s.c.) and intrapertioneal (i.p.) injection of 100 μg of the peptides as indicated above in the presence or absences of complete Freund's adjuvant. Boosting was performed in identical fashion at two-week internals with 100 μg of the peptides in the presence of absence of Freund's adjuvant. Sera were obtained by retro-orbital sinus puncture one week after the third injection.

C5aR = target: T1, C5aR (Homo sapiens, UniProt P21730); assay: Binding affinity for C5aRs on human PMNs (125I-C5a competition)
T1 construct: endogenous in cells; host or cells: intact human PMNs (polymorphonuclear leukocytes)
T1 sequence (P21730 1-350): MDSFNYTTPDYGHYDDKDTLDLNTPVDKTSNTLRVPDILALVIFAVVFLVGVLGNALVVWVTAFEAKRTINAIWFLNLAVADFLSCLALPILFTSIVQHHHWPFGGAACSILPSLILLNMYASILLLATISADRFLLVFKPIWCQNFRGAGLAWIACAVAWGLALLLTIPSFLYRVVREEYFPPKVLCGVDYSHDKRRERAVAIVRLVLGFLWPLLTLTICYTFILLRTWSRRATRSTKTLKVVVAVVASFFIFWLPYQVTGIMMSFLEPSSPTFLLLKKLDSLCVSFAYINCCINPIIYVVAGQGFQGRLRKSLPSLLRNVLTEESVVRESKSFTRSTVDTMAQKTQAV
Method: Pharmacologic assays. C5a-like agonistic activity was assessed by the ability of the peptides to induce smooth muscle contraction of human umbilical artery and […] from human PMNs according to previously published methods (Sanderson et al., 1994, supra; Sanderson et al., J. Med. Chem. 38, 3669, 1995; Finch et al., J. Med. Chem. 40, 877, 1997). Full concentration-response curves were generated for individual peptides and natural C5a in each assay and the EC50 values (the concentration of peptide producing 50% of the maximal response to each peptide) were calculated. pD2 transforms [−log EC50 (M)] were calculated for each concentration-response curve and reported as the mean±SE. Peptide binding affinity to the C5aR was evaluated on intact human PMNs by a competition assay using ^125I-C5a according to previously described methods (Sanderson et al., 1995, supra; Finch et al., 1997, supra). Statistical analysis of the values obtained from pharmacologic assays was performed using one-way analysis of variance (ANOVA).

human umbilical artery = assay: Smooth muscle contraction of human umbilical artery; assay type: cell-based
Method: (§1) Pharmacologic assays. […] Statistical analysis of the values obtained from pharmacologic assays was performed using one-way analysis of variance (ANOVA).

[5] = tested on: 51Cr-labeled P815S (HBsAg transfectant) target cells; assay: HBsAg-specific CTL response of immunized mice (51Cr-release assay); assay type: in vivo, BALB/c mice; conditions: three s.c. injections of 50 μg at 21 day intervals, no added adjuvant
human PMNs = assay: MPO release from human PMNs; assay type: cell-based
Method: as §1

[6] = target: T2, C5a receptor (C5aR) expressed on the surface of human PMNs (human, UniProt P21730 1-350); assay: cell-based or functional assay
T2 sequence (looked up): T1 sequence (P21730 1-350)

[7] = target: T2, C5a receptor (C5aR) expressed on the …; assay: competition with 125I-C5a on intact human PMNs; concentration giving 50% inhibition of 125I-C5a binding
[8] = target: T2, C5a receptor (C5aR) expressed on the …; assay: cell-based or functional assay; remark: listed apart in the source
[9] = target: T2, C5a receptor (C5aR) expressed on the …; assay: competition with 125I-C5a on intact human PMNs
Text: Pharmacologic activities.

[10] = five C57BL6 mice, mean titer of responders, sera screened against MUC1 peptide
[11] = 100 μg s.c. and i.p., sera one week after the third injection

Molecule: YSFKPMPLaRKQGGFLGL [peptide 4]
antibody response to MUC1 epitope (RIA) (MUC1 epitope peptide): immune responses were not produced

Molecule: YKQGGFLGLYSFKPMPLaR [peptide 3]
antibody response to MUC1 epitope (RIA) (MUC1 epitope peptide): substantial responses were produced | MUC1 specific Ab titer, IgA (MUC1 peptide; [10]): 0 | MUC1 specific Ab titer, IgG1 (MUC1 peptide; [10]): 0 | MUC1 specific Ab titer, IgG2a (MUC1 peptide; [10]): 1260 | MUC1 specific Ab titer, IgG2b (MUC1 peptide; [10]): 1780 (5/5) | MUC1 specific Ab titer, IgG3 (MUC1 peptide; [10]): 0 (5/5) | MUC1 specific Ab titer, IgM (MUC1 peptide; [10]): 6310 (5/5) | isotypes of the anti-peptide antibodies produced (MUC1 peptide; immunized mice, FIG. 3): IgM, IgG2a, and IgG2b | specificity of the antibody response for the MUC1 epitope (MUC1 peptide; immunized mice, FIG. 4): includes a high percentage of antibodies that are specific for the MUC1 epitope

pD2 (-log EC50 (M)) [1]: 5.63 | smooth muscle contraction of human umbilical artery, EC50 [2]: 10 nM | smooth muscle contraction of human umbilical artery, pD2 (-log EC50 (M)) [2]: 6.99 | EC50 [3]: 2340 nM
Molecule: C5a C-terminal decapeptide agonist analog YSFKPMPLaR

Molecule: Nic-YKQGGFLGLYSFKPMPLaR [B-cell-C5a-Nic]
Modified Minus Unmodified, BSA [4, 11]: 0 ng/mL | Modified Minus Unmodified, BSA-Nic [4, 11]: 33,943 ng/ml | Raw Data, plate coated with BSA [4, 11]: 1,298 ng/ml | Raw Data, plate coated with BSA-Nic [4, 11]: 35,241 ng/ml | antibody reactivity on other nicotine-modified peptides ([4]; in the presence of Freund's adjuvant, FIG. 7): 172,647 ng/ml | dipper entries on nicotine sessions, first cycle (male Sprague-Dawley rats; 1000 mg (500 mg s.c. and 500 mg i.p.) in saline, boosted weekly for 2 weeks, nicotine 0.4 mg/kg s.c.): significantly less dipper entries than non-vaccinated rats on nicotine Sessions 2 and 3 | index of learning-elevation score for the first light (male Sprague-Dawley rats; first cycle): does not differ between vaccinated and non-vaccinated rats | dipper entries on saline sessions (male Sprague-Dawley rats; nicotine not present): does not differentially affect behavior in this preparation when nicotine is not present

Molecule: YKQGGFLGL [peptide 1]
antibody response to MUC1 epitope (RIA) (MUC1 epitope peptide): no appreciable increase in antibody response

Molecule: CC[C@H](C)[C@H](N)C(=O)N1CCC[C@H]1C(=O)N[C@@H](CCC(N)=O)C(=O)N[C@@H](CO)C(=O)N[C@@H](CC(C)C)C(=O)N[C@@H](CC(=O)O)C(=O)N[C@@H](CO)C(=O)N[C@@H](Cc1c[nH]c2ccccc12)C(=O)N[C@@H](Cc1c[nH]c2ccccc12)C(=O)N[C@H](C(=O)N[C@@H](CO)C(=O)N[C@@H](CC(C)C)C(=O)N[C@@H](CCCNC(=N)N)C(=O)N[C@H](C(=O)N[C@@H](CCCNC(=N)N)C(=O)N[C@@H](CCCNC(=N)N)C(=O)N[C@@H](Cc1ccc(O)cc1)C(=O)N[C@@H](CO)C(=O)N[C@@H](Cc1ccccc1)C(=O)N[C@@H](CCCCN)C(=O)N1CCC[C@H]1C(=O)N[C@@H](CCSC)C(=O)N1CCC[C@H]1C(=O)N[C@@H](CC(C)C)C(=O)N[C@H](C)C(=O)N[C@@H](CCCNC(=N)N)C(=O)O)C(C)C)[C@@H](C)O (H-IPQSLDSWWTSLRVRRYSFKPMPL[dA]R-OH; N-terminus assumed)
EC50 (C5aR): 529 nM | IC50 (C5aR): 525 nM | EC50 (human umbilical artery; concentration resulting in 50% maximum contraction): 180 nM | pD2 ± SE (human umbilical artery; −log EC50 (M), mean ± SE, n 3): 6.67 ± 0.22 | antigen-specific CTL response [5]: able to elicit a specific CTL response that was significantly above background levels | EC50 (human PMNs; concentration resulting in 50% maximum release of myeloperoxidase): 2150 nM | pD2 ± SE (human PMNs; −log EC50 (M), mean ± SE, n 3): 5.61 ± 0.19

MPO release from human PMNs, EC50 [6]: 3 nM | MPO release from human PMNs, pD2 (-log EC50 (M)) [6]: 8.5 | EC50 [7]: 0.4 nM | smooth muscle contraction of human umbilical artery, EC50 [8]: 2 nM | smooth muscle contraction of human umbilical artery, pD2 (-log EC50 (M)) [8]: 8.77 | pD2 (-log EC50 (M)) [9]: 9.43
B1: natural C5a (ligand, UniProt P01031 678-751, looked up)
chain: TLQKKIEEIAAKYKHSVVKKCCYDGACVNNDETCEQRAARISLGPRCIKAFTECCVVASQLRANISHKDMQLGR
